{"source": "patent US20230263822A1", "about": "“MODULATION OF FACTOR 11 EXPRESSION” (Ionis Pharmaceuticals, Inc., priority 2008, published 2023)", "note": "Strand notation (5' to 3'): a small letter for the sugar, then the base; units joined by * are phosphorothioate-linked, units joined directly phosphodiester-linked; [ ] holds rarer units or linkages, { } end groups; capitals alone tell only the bases. e = 2'-O-(2-methoxyethyl) (MOE); [5mC] = 5-methylcytosine; d = 2'-deoxy (DNA)", "data": [{"test_system": "human Factor 11 mRNA", "test": "Antisense inhibition of human Factor 11 in HepG2 cells by microwalk gapmers, lipofectin, 75 nM (Example 3)", "format": "cell-based", "details": "HepG2, lipofectin, ~24 h, gapmers targeted to nucleobases 656 to 704 of SEQ ID NO: 1", "description": "(§1) These gapmers were designed by creating gapmers shifted slightly upstream and downstream (i.e. “microwalk”) of the original gapmers from Table 3. Gapmers were also created with various motifs, e.g. 5-10-5 MOE, 3-14-3 MOE, and 2-13-5 MOE. These gapmers were tested in vitro. Cultured HepG2 cells at a density of 10,000 cells per well were transfected using lipofectin reagent with 75 nM antisense oligonucleotide. After a treatment period of approximately 24 hours, RNA was isolated from the cells and Factor 11 mRNA levels were measured by quantitative real-time PCR. Factor 11 mRNA levels were adjusted according to total RNA content, as measured by RIBOGREEN. Results are presented as percent inhibition of Factor 11, relative to untreated control cells.\n(§2) The chimeric antisense oligonucleotides in Table 4 were designed as 5-10-5 MOE, 3-14-3 MOE, and 2-13-5 MOE gapmers. The first listed gapmers in Table 4 are the original gapmers (see Table 3) from which the remaining gapmers were designed via microwalk and are designated by an asterisk. The 5-10-5 gapmers are 20 nucleotides in length, wherein the central gap segment is comprised of 10 2′-deoxynucleotides and is flanked on both sides (in the 5′ and 3′ directions) by wings comprising 5 nucleotides each. The 3-14-3 gapmers are 20 nucleotides in length, wherein the central gap segment is comprised of 14 2′-deoxynucleotides and is flanked on both sides (in the 5′ and 3′ directions) by wings comprising 3 nucleotides each. The 2-13-5 gapmers are 20 nucleotides in length, wherein the central gap segment is comprised of 13 2′-deoxynucleotides. The central gap is flanked on the 5′ end with a wing comprising 2 nucleotides and on the 3′ end with a wing comprising 5 nucleotides. For each of the motifs (5-10-5, 3-14-3, and 2-13-5), each nucleotide in the 5′ wing segment and each nucleotide in the 3′ wing segment has a 2′-MOE modification. The internucleoside linkages throughout each gapmer are phosphorothioate (P=S) linkages. All cytidine residues throughout each gapmer are 5-methyl cytidines. “Target start site” indicates the 5′-most nucleotide to which the gapmer is targeted. “Target stop site” indicates the 3′-most nucleotide to which the gapmer is targeted. Each gapmer listed in Table 4 is targeted to SEQ ID NO: 1 (GENBANK Accession No. NM_000128.3).", "units": {"% inhibition": "%"}, "values": [{"substance": "416953 (antisense eT*e[5mC]*d[5mC]*dA*d[5mC]*dA*dT*dA*dA*dA*dT*dG*dT*d[5mC]*dT*eT*eT*eG*eT*eT) [compound 416953]", "% inhibition": 45}, {"substance": "416880 (antisense eT*eA*eG*dG*dT*d[5mC]*d[5mC]*dA*d[5mC]*dA*dT*dA*dA*dA*dT*dG*dT*e[5mC]*eT*eT) [compound 416880]", "% inhibition": 66}, {"substance": "416947 (antisense eT*eA*dA*dA*dT*dG*dT*d[5mC]*dT*dT*dT*dG*dT*dT*dG*e[5mC]*eA*eA*eG*e[5mC]) [compound 416947]", "% inhibition": 62}, {"substance": "416829 (antisense eT*eT*eT*eA*eT*dG*d[5mC]*d[5mC]*d[5mC]*dT*dT*d[5mC]*dA*dT*dG*eT*e[5mC]*eT*eA*eG) [compound 416829]", "% inhibition": 72}, {"substance": "416960 (antisense eG*eT*d[5mC]*dT*dA*dG*dG*dT*d[5mC]*d[5mC]*dA*d[5mC]*dA*dT*dA*eA*eA*eT*eG*eT) [compound 416960]", "% inhibition": 60}, {"substance": "416813 (antisense eG*eT*e[5mC]*e[5mC]*eA*d[5mC]*dA*dT*dA*dA*dA*dT*dG*dT*d[5mC]*eT*eT*eT*eG*eT) [compound 416813]", "% inhibition": 70}, {"substance": "416876 (antisense eT*e[5mC]*e[5mC]*dA*d[5mC]*dA*dT*dA*dA*dA*dT*dG*dT*d[5mC]*dT*dT*dT*eG*eT*eT) [compound 416876]", "% inhibition": 37}, {"substance": "416824 (antisense e[5mC]*e[5mC]*e[5mC]*eT*eT*d[5mC]*dA*dT*dG*dT*d[5mC]*dT*dA*dG*dG*eT*e[5mC]*e[5mC]*eA*e[5mC]) [compound 416824]", "% inhibition": 64}, {"substance": "416821 (antisense eT*e[5mC]*eA*eT*eG*dT*d[5mC]*dT*dA*dG*dG*dT*d[5mC]*d[5mC]*dA*e[5mC]*eA*eT*eA*eA) [compound 416821]", "% inhibition": 84}, {"substance": "416958 (antisense e[5mC]*eT*dA*dG*dG*dT*d[5mC]*d[5mC]*dA*d[5mC]*dA*dT*dA*dA*dA*eT*eG*eT*e[5mC]*eT) [compound 416958]", "% inhibition": 43}, {"substance": "416891 (antisense e[5mC]*e[5mC]*e[5mC]*dT*dT*d[5mC]*dA*dT*dG*dT*d[5mC]*dT*dA*dG*dG*dT*d[5mC]*e[5mC]*eA*e[5mC]) [compound 416891]", "% inhibition": 81}, {"substance": "416957 (antisense eT*eA*dG*dG*dT*d[5mC]*d[5mC]*dA*d[5mC]*dA*dT*dA*dA*dA*dT*eG*eT*e[5mC]*eT*eT) [compound 416957]", "% inhibition": 59}, {"substance": "416966 (antisense e[5mC]*eT*dT*d[5mC]*dA*dT*dG*dT*d[5mC]*dT*dA*dG*dG*dT*d[5mC]*e[5mC]*eA*e[5mC]*eA*eT) [compound 416966]", "% inhibition": 64}, {"substance": "416869 (antisense eA*eA*eA*dT*dG*dT*d[5mC]*dT*dT*dT*dG*dT*dT*dG*d[5mC]*dA*dA*eG*e[5mC]*eG) [compound 416869]", "% inhibition": 81}, {"substance": "416817 (antisense eT*e[5mC]*eT*eA*eG*dG*dT*d[5mC]*d[5mC]*dA*d[5mC]*dA*dT*dA*dA*eA*eT*eG*eT*e[5mC]) [compound 416817]", "% inhibition": 74}, {"substance": "416877 (antisense eG*eT*e[5mC]*d[5mC]*dA*d[5mC]*dA*dT*dA*dA*dA*dT*dG*dT*d[5mC]*dT*dT*eT*eG*eT) [compound 416877]", "% inhibition": 51}, {"substance": "416868 (antisense eA*eA*eT*dG*dT*d[5mC]*dT*dT*dT*dG*dT*dT*dG*d[5mC]*dA*dA*dG*e[5mC]*eG*e[5mC]) [compound 416868]", "% inhibition": 93}, {"substance": "416946 (antisense eA*eA*dA*dT*dG*dT*d[5mC]*dT*dT*dT*dG*dT*dT*dG*d[5mC]*eA*eA*eG*e[5mC]*eG) [compound 416946]", "% inhibition": 86}, {"substance": "416949 (antisense e[5mC]*eA*dT*dA*dA*dA*dT*dG*dT*d[5mC]*dT*dT*dT*dG*dT*eT*eG*e[5mC]*eA*eA) [compound 416949]", "% inhibition": 64}, {"substance": "416872 (antisense e[5mC]*eA*eT*dA*dA*dA*dT*dG*dT*d[5mC]*dT*dT*dT*dG*dT*dT*dG*e[5mC]*eA*eA) [compound 416872]", "% inhibition": 20}]}, {"test_system": "human Factor 11 mRNA", "test": "Antisense inhibition of human Factor 11 in HepG2 cells by microwalk gapmers, lipofectin, 75 nM (Example 3)", "format": "cell-based", "details": "HepG2 cells, lipofectin, gapmers targeted to nucleobases 738 to 762 of SEQ ID NO: 1", "description": "as §1, §2", "units": {"% inhibition": "%"}, "values": [{"substance": "416898 (antisense e[5mC]*e[5mC]*eG*dT*dG*d[5mC]*dA*dT*d[5mC]*dT*dT*dT*d[5mC]*dT*dT*dG*dG*e[5mC]*eA*eT) [compound 416898]", "% inhibition": 88}, {"substance": "416975 (antisense e[5mC]*e[5mC]*dG*dT*dG*d[5mC]*dA*dT*d[5mC]*dT*dT*dT*d[5mC]*dT*dT*eG*eG*e[5mC]*eA*eT) [compound 416975]", "% inhibition": 87}]}, {"test_system": "human Factor 11 mRNA", "test": "Antisense inhibition of human Factor 11 in HepG2 cells by microwalk gapmers, lipofectin, 75 nM (Example 3)", "format": "cell-based", "details": "HepG2 cells, lipofectin, gapmers targeted to nucleobases 1018 to 1042 of SEQ ID NO: 1", "description": "as §1, §2", "units": {"% inhibition": "%"}, "values": [{"substance": "416835 (antisense eA*e[5mC]*e[5mC]*eG*eG*dG*dA*dT*dG*dA*dT*dG*dA*dG*dT*eG*e[5mC]*eA*eG*eA) [compound 416835]", "% inhibition": 83}, {"substance": "416904 (antisense e[5mC]*e[5mC]*eG*dG*dG*dA*dT*dG*dA*dT*dG*dA*dG*dT*dG*d[5mC]*dA*eG*eA*eT) [compound 416904]", "% inhibition": 90}, {"substance": "416907 (antisense e[5mC]*eA*eA*d[5mC]*d[5mC]*dG*dG*dG*dA*dT*dG*dA*dT*dG*dA*dG*dT*eG*e[5mC]*eA) [compound 416907]", "% inhibition": 90}]}, {"test_system": "human Factor 11 mRNA", "test": "Antisense inhibition of human Factor 11 in HepG2 cells by microwalk gapmers, lipofectin, 75 nM (Example 3)", "format": "cell-based", "details": "HepG2 cells, lipofectin, gapmers targeted to nucleobases 1062 to 1091 of SEQ ID NO: 1", "description": "as §1, §2", "units": {"% inhibition": "%"}, "values": [{"substance": "416986 (antisense eA*eT*dT*d[5mC]*dT*dT*dT*dG*dG*dG*d[5mC]*d[5mC]*dA*dT*dT*e[5mC]*e[5mC]*eT*eG*eG) [compound 416986]", "% inhibition": 88}, {"substance": "416914 (antisense eT*eT*eG*dA*dG*dA*dT*dT*d[5mC]*dT*dT*dT*dG*dG*dG*d[5mC]*d[5mC]*eA*eT*eT) [compound 416914]", "% inhibition": 87}, {"substance": "416987 (antisense eG*eA*dT*dT*d[5mC]*dT*dT*dT*dG*dG*dG*d[5mC]*d[5mC]*dA*dT*eT*e[5mC]*e[5mC]*eT*eG) [compound 416987]", "% inhibition": 80}, {"substance": "416843 (antisense eT*eT*eT*eG*eA*dG*dA*dT*dT*d[5mC]*dT*dT*dT*dG*dG*eG*e[5mC]*e[5mC]*eA*eT) [compound 416843]", "% inhibition": 89}, {"substance": "416915 (antisense eT*eT*eT*dG*dA*dG*dA*dT*dT*d[5mC]*dT*dT*dT*dG*dG*dG*d[5mC]*e[5mC]*eA*eT) [compound 416915]", "% inhibition": 79}, {"substance": "416847 (antisense eT*eT*eT*e[5mC]*eT*dT*dT*dG*dA*dG*dA*dT*dT*d[5mC]*dT*eT*eT*eG*eG*eG) [compound 416847]", "% inhibition": 50}, {"substance": "416841 (antisense eG*eA*eG*eA*eT*dT*d[5mC]*dT*dT*dT*dG*dG*dG*d[5mC]*d[5mC]*eA*eT*eT*e[5mC]*e[5mC]) [compound 416841]", "% inhibition": 87}, {"substance": "416918 (antisense eT*eT*e[5mC]*dT*dT*dT*dG*dA*dG*dA*dT*dT*d[5mC]*dT*dT*dT*dG*eG*eG*e[5mC]) [compound 416918]", "% inhibition": 63}, {"substance": "416913 (antisense eT*eG*eA*dG*dA*dT*dT*d[5mC]*dT*dT*dT*dG*dG*dG*d[5mC]*d[5mC]*dA*eT*eT*e[5mC]) [compound 416913]", "% inhibition": 93}]}, {"test_system": "human Factor 11 mRNA", "test": "Antisense inhibition of human Factor 11 in HepG2 cells by microwalk gapmers, lipofectin, 75 nM (Example 3)", "format": "cell-based", "details": "HepG2 cells, lipofectin, gapmers targeted to nucleobases 1275 to 1318 of SEQ ID NO: 1", "description": "as §1, §2", "units": {"% inhibition": "%"}, "values": [{"substance": "416921 (antisense e[5mC]*eA*e[5mC]*dA*dG*dT*dT*dT*d[5mC]*dT*dG*dG*d[5mC]*dA*dG*dG*d[5mC]*e[5mC]*eT*e[5mC]) [compound 416921]", "% inhibition": 88}, {"substance": "417013 (antisense e[5mC]*eG*dG*dA*d[5mC]*dG*dG*d[5mC]*dA*dT*dT*dG*dG*dT*dG*e[5mC]*eA*e[5mC]*eA*eG) [compound 417013]", "% inhibition": 86}, {"substance": "417001 (antisense eG*eT*dG*d[5mC]*dA*d[5mC]*dA*dG*dT*dT*dT*d[5mC]*dT*dG*dG*e[5mC]*eA*eG*eG*e[5mC]) [compound 417001]", "% inhibition": 83}, {"substance": "417015 (antisense eA*eG*d[5mC]*dG*dG*dA*d[5mC]*dG*dG*d[5mC]*dA*dT*dT*dG*dG*eT*eG*e[5mC]*eA*e[5mC]) [compound 417015]", "% inhibition": 87}, {"substance": "416939 (antisense e[5mC]*eA*eG*d[5mC]*dG*dG*dA*d[5mC]*dG*dG*d[5mC]*dA*dT*dT*dG*dG*dT*eG*e[5mC]*eA) [compound 416939]", "% inhibition": 88}, {"substance": "416928 (antisense eA*eT*eT*dG*dG*dT*dG*d[5mC]*dA*d[5mC]*dA*dG*dT*dT*dT*d[5mC]*dT*eG*eG*e[5mC]) [compound 416928]", "% inhibition": 91}, {"substance": "416997 (antisense eA*e[5mC]*dA*dG*dT*dT*dT*d[5mC]*dT*dG*dG*d[5mC]*dA*dG*dG*e[5mC]*e[5mC]*eT*e[5mC]*eG) [compound 416997]", "% inhibition": 84}]}]}
